Measurements from patent publication EP4043466B1, “PRC2 INHIBITORS” (Mirati Therapeutics, Inc., priority 2018, dated 2019).

What was measured:
[1] = system: PRC2-mediated histone H3 methylation; assay: Tri-Methyl Histone H3 (Lys 27) Sandwich ELISA in Pfeiffer cells: inhibition of PRC2-mediated histone H3 methylation; assay type: cell-based, human; conditions: Inhibition of EZH2-mediated histone H3 trimethylation, Pfeiffer cells (EZH2 A677G), 96 hours incubation
Outline: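 Pfeiffer DLBCL cells (EZH2 A677G mutant) treated with 3-fold serial dilutions, 1µM to 0.15 nM final, for 96 hours at 37°C. Acid (0.4M HCl) histone extracts, neutralized, assayed by H3K27me3 sandwich ELISA with HRP/TMB read at 450 nm.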

[2] = system: Karpas 422 cells; assay: Karpas 422 cell viability, CTG (Cell Titre Glo) assay; assay type: cell-based, human; conditions: Inhibition of proliferation of Karpas 422 cells (EZH2 Y641N), viability measured Day 4, Day 7 or Day 11, time point of the tabulated values not stated
Outline: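 Karpas 422 cells (EZH2 Y641N, DLBCL) plated at 1000 cells/well in RPMI with 20% FBS, exposed to compound 10µM down to 1.5nM in 3-fold steps at 37 °C. Viability by CellTiter-Glo on Days 4, 7 and 11; Day 11 plates re-fed with fresh medium and compound on Day 7. IC50 per time point.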

[3] = target: purified human, His-tagged PRC2 complex (Homo sapiens, UniProt O75530+Q15910); assay: Hot Spot HMT assay: inhibition of PRC2 enzymatic activity (transfer of tritiated methyl from SAM to core histone, filter binding); assay type: biochemical; conditions: Inhibition of PRC2-mediated enzymatic activity; 10 nM PRC2 complex, 0.05 mg/ml core histone H3, 1 uM 3H-SAM, 1 hr at 30°C
Outline: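 Five-subunit complex (His-EZH2, Flag-EED, His-SUZ12, His-AEBP2, His-RbAp48) at 10 nM with 0.05 mg/ml core histone H3, pH 8 Tris buffer, 1% DMSO; 20 min compound pre-incubation at 30°C. Started with 1 uM [3H]-SAM, 1 hr at 30°C; tritiated H3 counted by scintillation. Compounds diluted from 1.0 µM top concentration.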

purified human, His-tagged PRC2 complex, sequence (Q15910 whole entry): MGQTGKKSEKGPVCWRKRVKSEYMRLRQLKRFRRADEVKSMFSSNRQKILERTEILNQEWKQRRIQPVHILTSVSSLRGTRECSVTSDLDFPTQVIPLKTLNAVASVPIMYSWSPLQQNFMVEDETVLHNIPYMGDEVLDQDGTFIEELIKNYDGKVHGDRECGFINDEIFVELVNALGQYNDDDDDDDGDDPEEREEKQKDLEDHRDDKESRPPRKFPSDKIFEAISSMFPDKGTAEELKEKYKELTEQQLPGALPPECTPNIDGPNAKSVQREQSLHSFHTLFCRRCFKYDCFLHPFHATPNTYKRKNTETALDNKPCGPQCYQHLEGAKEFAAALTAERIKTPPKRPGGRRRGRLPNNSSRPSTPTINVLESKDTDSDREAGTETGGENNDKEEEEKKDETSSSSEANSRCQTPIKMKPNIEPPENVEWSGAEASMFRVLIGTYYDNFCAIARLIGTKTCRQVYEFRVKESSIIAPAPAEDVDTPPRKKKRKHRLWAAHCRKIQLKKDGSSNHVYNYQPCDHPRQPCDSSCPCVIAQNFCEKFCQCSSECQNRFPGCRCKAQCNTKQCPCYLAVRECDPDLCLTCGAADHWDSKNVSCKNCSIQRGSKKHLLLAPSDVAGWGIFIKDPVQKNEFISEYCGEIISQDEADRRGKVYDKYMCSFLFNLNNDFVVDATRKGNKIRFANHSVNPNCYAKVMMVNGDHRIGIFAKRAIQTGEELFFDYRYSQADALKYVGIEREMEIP
purified human, His-tagged PRC2 complex, sequence (O75530 whole entry): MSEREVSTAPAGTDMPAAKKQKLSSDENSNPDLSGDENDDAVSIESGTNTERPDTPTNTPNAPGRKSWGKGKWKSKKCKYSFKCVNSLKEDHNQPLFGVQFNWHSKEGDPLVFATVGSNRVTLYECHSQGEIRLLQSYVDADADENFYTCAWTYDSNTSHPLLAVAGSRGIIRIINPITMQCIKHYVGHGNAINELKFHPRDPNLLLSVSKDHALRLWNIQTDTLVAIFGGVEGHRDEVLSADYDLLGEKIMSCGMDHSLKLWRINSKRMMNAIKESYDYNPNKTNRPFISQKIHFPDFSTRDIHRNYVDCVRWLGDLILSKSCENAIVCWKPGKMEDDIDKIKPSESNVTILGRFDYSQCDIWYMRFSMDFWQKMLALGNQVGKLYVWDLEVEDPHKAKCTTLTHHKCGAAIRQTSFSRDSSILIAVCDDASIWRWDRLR
purified human, His-tagged PRC2 complex, sequence (Q15022 whole entry partner): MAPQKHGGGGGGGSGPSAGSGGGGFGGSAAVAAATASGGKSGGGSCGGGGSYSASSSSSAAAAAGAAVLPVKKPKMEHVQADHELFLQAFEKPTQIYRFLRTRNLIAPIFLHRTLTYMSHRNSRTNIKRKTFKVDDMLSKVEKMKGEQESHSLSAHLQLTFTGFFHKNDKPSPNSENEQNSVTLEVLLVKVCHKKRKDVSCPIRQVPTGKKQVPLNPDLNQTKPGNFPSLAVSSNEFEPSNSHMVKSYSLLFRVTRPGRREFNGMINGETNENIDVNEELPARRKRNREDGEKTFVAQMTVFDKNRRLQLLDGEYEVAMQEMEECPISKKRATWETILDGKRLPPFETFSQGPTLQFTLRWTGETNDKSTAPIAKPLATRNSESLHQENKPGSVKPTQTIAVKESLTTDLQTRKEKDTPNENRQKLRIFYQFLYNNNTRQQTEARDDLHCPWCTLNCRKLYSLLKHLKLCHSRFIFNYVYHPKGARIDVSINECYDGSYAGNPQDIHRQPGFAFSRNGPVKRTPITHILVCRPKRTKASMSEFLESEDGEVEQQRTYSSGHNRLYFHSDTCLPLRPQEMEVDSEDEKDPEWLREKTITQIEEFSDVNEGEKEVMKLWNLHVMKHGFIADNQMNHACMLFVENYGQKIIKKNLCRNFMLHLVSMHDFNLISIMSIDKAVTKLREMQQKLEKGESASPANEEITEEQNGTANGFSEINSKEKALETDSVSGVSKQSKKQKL
purified human, His-tagged PRC2 complex, sequence (Q6ZN18 whole entry partner): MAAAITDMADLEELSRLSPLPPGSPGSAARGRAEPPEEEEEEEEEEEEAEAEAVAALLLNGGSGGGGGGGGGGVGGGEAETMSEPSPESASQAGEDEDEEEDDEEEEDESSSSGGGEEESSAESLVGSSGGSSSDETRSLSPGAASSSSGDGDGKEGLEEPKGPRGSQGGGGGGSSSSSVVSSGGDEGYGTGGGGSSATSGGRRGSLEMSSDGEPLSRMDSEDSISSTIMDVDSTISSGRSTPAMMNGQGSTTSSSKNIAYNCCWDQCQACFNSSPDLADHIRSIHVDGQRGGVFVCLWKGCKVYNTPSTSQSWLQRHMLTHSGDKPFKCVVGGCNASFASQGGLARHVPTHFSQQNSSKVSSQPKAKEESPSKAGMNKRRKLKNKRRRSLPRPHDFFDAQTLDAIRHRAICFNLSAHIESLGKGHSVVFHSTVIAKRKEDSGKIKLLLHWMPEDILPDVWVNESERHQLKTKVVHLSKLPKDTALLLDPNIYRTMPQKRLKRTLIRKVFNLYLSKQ
purified human, His-tagged PRC2 complex, sequence (Q09028 whole entry partner): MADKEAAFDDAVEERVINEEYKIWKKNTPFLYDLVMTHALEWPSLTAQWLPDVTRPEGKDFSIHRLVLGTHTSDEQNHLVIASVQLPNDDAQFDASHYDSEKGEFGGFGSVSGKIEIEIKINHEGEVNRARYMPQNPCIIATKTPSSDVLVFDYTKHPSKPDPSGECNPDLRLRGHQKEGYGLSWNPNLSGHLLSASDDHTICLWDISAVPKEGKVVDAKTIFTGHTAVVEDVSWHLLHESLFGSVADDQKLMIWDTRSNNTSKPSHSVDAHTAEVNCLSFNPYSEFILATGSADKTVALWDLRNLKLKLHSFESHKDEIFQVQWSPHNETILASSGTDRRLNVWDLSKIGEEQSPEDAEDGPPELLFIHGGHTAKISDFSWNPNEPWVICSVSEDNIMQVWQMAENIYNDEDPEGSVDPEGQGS

IC50 ([1]; Homo sapiens)	IC50 ([2]; Homo sapiens)	IC50 [3]	IC50 [1]	IC50 [2]	Molecule
100 to 500 nM	≤ 250 nM	100 to 500 nM			N#Cc1cn2c(NCc3c(F)ccc4c3CCO4)ncc(-c3ccc([C@H]4CCCN4)cc3)c2n1 [Example 220, (R)-5-(((5-fluoro-2,3-dihydrobenzofuran-4-yl)methyl)amino)-8-(4-(pyrrolidin-2-yl)phenyl)imidazo[1,2-c]pyrimidine-2-carbonitrile]
≤ 100 nM	≤ 250 nM	< 100 nM			CN(C)Cc1cc(F)c(-c2cnc(NCc3c(F)ccc4c3CCO4)n3cc(C#N)nc23)cc1F [Example 39, 8-(4-((dimethylamino)methyl)-2,5-difluorophenyl)-5-(((5-fluoro-2,3-dihydrobenzofuran-4-yl)methyl)amino)imidazo[1,2-c]pyrimidine-2-carbonitrile]
≤ 100 nM	≤ 250 nM	< 100 nM			CNCc1ccc(-c2cnc(NCc3c(F)ccc4c3CCO4)n3cc(C#N)nc23)cc1 [Example 185, 5-(((5-fluoro-2,3-dihydrobenzofuran-4-yl)methyl)amino)-8-(4-((methylamino)methyl)phenyl)imidazo[1,2-c]pyrimidine-2-carbonitrile]
≤ 100 nM	≤ 250 nM	< 100 nM			Cc1cc(C(=O)N(C)C)ncc1-c1cnc(NCc2c(F)ccc3c2CCO3)n2cc(C#N)nc12 [Example 76, 5-(2-cyano-5-(((5-fluoro-2,3-dihydrobenzofuran-4-yl)methyl)amino)imidazo[1,2-c]pyrimidin-8-yl)-N,N,4-trimethylpicolinamide]
100 to 500 nM	≤ 250 nM	< 100 nM			CC(c1ccc(-c2cnc(NCc3c(F)ccc4c3CCO4)n3cc(C#N)nc23)cc1)N(C)C (stereo not drawn) [Example 199, 8-(4-(1-(dimethylamino)ethyl)phenyl)-5-(((5-fluoro-2,3-dihydrobenzofuran-4-yl)methyl)amino)imidazo[1,2-c]pyrimidine-2-carbonitrile]
100 to 500 nM	≤ 250 nM	100 to 500 nM			N#Cc1cn2c(NCc3c(F)ccc4c3CCO4)ncc(-c3cnn(CCO)c3)c2n1 [Example 182, 5-(((5-fluoro-2,3-dihydrobenzofuran-4-yl)methyl)amino)-8-(1-(2-hydroxyethyl)-1H-pyrazol-4-yl)imidazo[1,2-c]pyrimidine-2-carbonitrile]
100 to 500 nM	≤ 250 nM	< 100 nM			Cc1ncccc1-c1cnc(NCc2c(F)ccc3c2CCO3)n2cc(C(N)=O)nc12 [Example 137, 5-(((5-fluoro-2,3-dihydrobenzofuran-4-yl)methyl)amino)-8-(2-methylpyridin-3-yl)imidazo[1,2-c]pyrimidine-2-carboxamide]
100 to 500 nM	≤ 250 nM	< 100 nM			Cc1cc(S(=O)(=O)N(C)C)ccc1-c1cnc(NCc2c(F)ccc3c2CCO3)n2cc(C#N)nc12 [Example 48, 4-(2-cyano-5-(((5-fluoro-2,3-dihydrobenzofuran-4-yl)methyl)amino)imidazo[1,2-c]pyrimidin-8-yl)-N,N,3-trimethylbenzenesulfonamide]
100 to 500 nM	≤ 250 nM	< 100 nM			Cc1ncc(-c2cnc(NCc3c(F)ccc4c3CCO4)n3cc(C#N)nc23)c(C)n1 [Example 71, 8-(2,4-dimethylpyrimidin-5-yl)-5-(((5-fluoro-2,3-dihydrobenzofuran-4-yl)methyl)amino)imidazo[1,2-c]pyrimidine-2-carbonitrile]
100 to 500 nM	≤ 250 nM	< 100 nM			N#Cc1cn2c(NCc3c(F)ccc4c3CCO4)ncc(-c3ccnn3C3CC3)c2n1 [Example 193, 8-(1-cyclopropyl-1H-pyrazol-5-yl)-5-(((5-fluoro-2,3-dihydrobenzofuran-4-yl)methyl)amino)imidazo[1,2-c]pyrimidine-2-carbonitrile]
≤ 100 nM	≤ 250 nM	< 100 nM			Cc1ccc(-c2cnc(NCc3c(F)ccc4c3CCO4)n3cc(C#N)nc23)c(C)n1 [Example 67, 8-(2,6-dimethylpyridin-3-yl)-5-(((5-fluoro-2,3-dihydrobenzofuran-4-yl)methyl)amino)imidazo[1,2-c]pyrimidine-2-carbonitrile]
		100 to 500 nM	100 to 500 nM	≤ 250 nM	5-(((5-fluoro-2,3-dihydrobenzofuran-4-yl)methyl)amino)-8-(2-methylpyridin-4-yl)imidazo[1,2-c]pyrimidine-2-carbonitrile [Example 178]
100 to 500 nM	250 to 500 nM	100 to 500 nM			COCCOc1ccc(-c2cnc(NCc3c(F)ccc4c3CCO4)n3cc(C#N)nc23)cn1 [Example 158, 5-(((5-fluoro-2,3-dihydrobenzofuran-4-yl)methyl)amino)-8-(6-(2-methoxyethoxy)pyridin-3-yl)imidazo[1,2-c]pyrimidine-2-carbonitrile]
100 to 500 nM	≤ 250 nM	100 to 500 nM			Cc1nc(CN(C)C)ccc1-c1cnc(NCc2c(F)ccc3c2CCO3)n2cc(C#N)nc12 [Example 152, 8-(6-((dimethylamino)methyl)-2-methylpyridin-3-yl)-5-(((5-fluoro-2,3-dihydrobenzofuran-4-yl)methyl)amino)imidazo[1,2-c]pyrimidine-2-carbonitrile]
100 to 500 nM	≤ 250 nM	< 100 nM			COCCOc1ccc(-c2cnc(NCc3c(F)ccc4c3CCO4)n3cc(C#N)nc23)cc1 [Example 161, 5-(((5-fluoro-2,3-dihydrobenzofuran-4-yl)methyl)amino)-8-(4-(2-methoxyethoxy)phenyl)imidazo[1,2-c]pyrimidine-2-carbonitrile]
> 500 nM	> 500 nM	100 to 500 nM			N#Cc1cn2c(NCc3c(F)ccc4c3CCO4)ncc(C3CC3)c2n1 [Example 77, 8-cyclopropyl-5-(((5-fluoro-2,3-dihydrobenzofuran-4-yl)methyl)amino)imidazo[1,2-c]pyrimidine-2-carbonitrile]
> 500 nM	> 500 nM	< 100 nM			N#Cc1cn2c(NCc3c(F)ccc4c3CCO4)ncc(-c3cccc(C(=O)O)c3)c2n1 [Example 174, 3-(2-cyano-5-(((5-fluoro-2,3-dihydrobenzofuran-4-yl)methyl)amino)imidazo[1,2-c]pyrimidin-8-yl)benzoic acid]
100 to 500 nM	> 500 nM	< 100 nM			CC(O)Cn1cc(-c2cnc(NCc3c(F)ccc4c3CCO4)n3cc(C#N)nc23)cn1 (stereo not drawn) [Example 179, 5-(((5-fluoro-2,3-dihydrobenzofuran-4-yl)methyl)amino)-8-(1-(2-hydroxypropyl)-1H-pyrazol-4-yl)imidazo[1,2-c]pyrimidine-2-carbonitrile]
100 to 500 nM	≤ 250 nM	< 100 nM			COC(=O)c1cc(-c2cnc(NCc3c(F)ccc4c3CCO4)n3cc(C#N)nc23)n(C)n1 [Example 169, methyl 5-(2-cyano-5-(((5-fluoro-2,3-dihydrobenzofuran-4-yl)methyl)amino)imidazo[1,2-c]pyrimidin-8-yl)-1-methyl-1H-pyrazole-3-carboxylate]
≤ 100 nM	≤ 250 nM	< 100 nM			CN(C)C(=O)c1ccc(-c2cnc(NCc3c(F)ccc4c3CCO4)n3cc(C#N)nc23)cc1F [Example 36, 4-(2-cyano-5-(((5-fluoro-2,3-dihydrobenzofuran-4-yl)methyl)amino)imidazo[1,2-c]pyrimidin-8-yl)-2-fluoro-N,N-dimethylbenzamide]
